Assay results taken from patent publication US20240067617A1 (Albireo AB, priority 2022, published 2024).
pIC50: −log10 of the molar value.

What was measured:
hIBAT = target: T1, hIBAT (Homo sapiens, UniProt Q12908); experiment: IBAT (h/m) assay: 3H-taurocholic acid uptake in human IBAT-overexpressing cells; assay type: cell-based; conditions: 0.25 μM 3H-taurocholic acid + 5 μM cold taurocholic acid, 20 minutes at 37° C., highest test concentration 10 μM
T1 construct: expressed in transfected cells; kept under Puromycin selection
T1 sequence (Q12908 1-348): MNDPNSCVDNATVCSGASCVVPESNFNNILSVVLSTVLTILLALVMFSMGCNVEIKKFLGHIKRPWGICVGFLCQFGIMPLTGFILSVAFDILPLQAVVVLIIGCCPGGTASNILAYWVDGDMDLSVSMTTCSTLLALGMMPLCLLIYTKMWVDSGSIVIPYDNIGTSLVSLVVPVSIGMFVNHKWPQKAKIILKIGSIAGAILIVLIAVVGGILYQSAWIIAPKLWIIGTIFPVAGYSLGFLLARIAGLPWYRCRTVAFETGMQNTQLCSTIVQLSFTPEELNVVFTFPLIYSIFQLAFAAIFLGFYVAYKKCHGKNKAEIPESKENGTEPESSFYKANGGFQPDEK
Method in brief: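 Human or mouse IBAT-overexpressing cells cultured 48 h, then exposed for 20 min at 37 °C to compounds (top 10 μM, 3-fold, 10 points; 0.2% DMSO) with 0.25 μM 3H-taurocholic acid plus 5 μM cold taurocholic acid. Uptake stopped on ice, cells washed with cold 1 mM taurocholic acid, radioactivity counted by scintillation.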

hLBAT = target: T2, hLBAT (Homo sapiens, UniProt Q14973); experiment: LBAT (h/m) assay: 3H-taurocholic acid uptake in human LBAT-overexpressing cells; assay type: cell-based; conditions: 0.3 μM 3H-taurocholic acid + 7.5 μM cold taurocholic acid, 20 minutes at 37° C.
T2 construct: expressed in transfected cells; kept under Geneticin selection
T2 sequence (Q14973 1-349): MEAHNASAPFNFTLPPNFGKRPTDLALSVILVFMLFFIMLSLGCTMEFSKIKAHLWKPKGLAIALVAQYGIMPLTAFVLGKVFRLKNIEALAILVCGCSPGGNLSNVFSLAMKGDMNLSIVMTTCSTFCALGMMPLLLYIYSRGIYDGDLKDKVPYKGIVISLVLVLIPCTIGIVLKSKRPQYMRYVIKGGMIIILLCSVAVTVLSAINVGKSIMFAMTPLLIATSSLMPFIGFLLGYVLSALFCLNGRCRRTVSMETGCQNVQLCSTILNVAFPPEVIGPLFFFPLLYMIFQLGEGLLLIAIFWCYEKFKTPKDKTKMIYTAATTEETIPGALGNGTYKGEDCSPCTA
Method in brief: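 Human or mouse LBAT-overexpressing cells given 10-point inhibitor series with 0.3 μM 3H-taurocholic acid plus cold taurocholic acid (7.5 μM human, 25 μM mouse), 0.2% DMSO, for 20 min at 37° C. Stopped on ice, washed with 1 mM unlabelled taurocholic acid; uptake measured by scintillation counting.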

Row | pIC50 (hIBAT) | pIC50 (hLBAT) | Compound
1 | 9.70 | 5.69 | CCCCC1(CC)CN(c2ccccc2)c2cc(SC)c(CSCC(=O)O)cc2S(=O)(=O)C1 (single isomer, unassigned) [2, enantiomer 1]
2 | 9.15 | 5.22 | CCCCC1(C)CN(c2ccccc2)c2cc(SC)c(CSCC(=O)O)cc2S(=O)(=O)C1 (single isomer, unassigned) [5, enantiomer 1]
3 | 9.40 | 5.30 | CCCCC1(CC)CN(c2ccc(F)cc2)c2cc(SC)c(CSCC(=O)O)cc2S(=O)(=O)C1 (single isomer, unassigned) [7, enantiomer 1]
